In ChEMBL document CHEMBL1149733, “Antitumor agents, 130, Novel 4 beta-arylamino derivatives of 3',4'-didemethoxy-3',4'-dioxo-4-deoxypodophyllotoxin as potent inhibitors of human DNA topoisomerase II” (1992):
pIC50: −log10 of the molar value.

Assays:
KB = assay: Cytotoxicity against human KB cells assessed as reduction in cell number after 3 days; type: functional; conditions: 72 h, read-out: ID50 (the source's name)
[1] = molecular target: DNA topoisomerase 2-alpha (Homo sapiens) (UniProt P11388); assay: Inhibition of strand rejoining activity of human DNA topoisomerase 2 assessed as protein-DNA complex formation at 20 uM by cell-based assay; design: scale not given: the % may be the effect or the level left
[2] = molecular target: DNA topoisomerase 2-alpha (Homo sapiens) (UniProt P11388); assay: Inhibition of human DNA topoisomerase 2

DNA topoisomerase 2-alpha (Homo sapiens), sequence (P11388 whole entry): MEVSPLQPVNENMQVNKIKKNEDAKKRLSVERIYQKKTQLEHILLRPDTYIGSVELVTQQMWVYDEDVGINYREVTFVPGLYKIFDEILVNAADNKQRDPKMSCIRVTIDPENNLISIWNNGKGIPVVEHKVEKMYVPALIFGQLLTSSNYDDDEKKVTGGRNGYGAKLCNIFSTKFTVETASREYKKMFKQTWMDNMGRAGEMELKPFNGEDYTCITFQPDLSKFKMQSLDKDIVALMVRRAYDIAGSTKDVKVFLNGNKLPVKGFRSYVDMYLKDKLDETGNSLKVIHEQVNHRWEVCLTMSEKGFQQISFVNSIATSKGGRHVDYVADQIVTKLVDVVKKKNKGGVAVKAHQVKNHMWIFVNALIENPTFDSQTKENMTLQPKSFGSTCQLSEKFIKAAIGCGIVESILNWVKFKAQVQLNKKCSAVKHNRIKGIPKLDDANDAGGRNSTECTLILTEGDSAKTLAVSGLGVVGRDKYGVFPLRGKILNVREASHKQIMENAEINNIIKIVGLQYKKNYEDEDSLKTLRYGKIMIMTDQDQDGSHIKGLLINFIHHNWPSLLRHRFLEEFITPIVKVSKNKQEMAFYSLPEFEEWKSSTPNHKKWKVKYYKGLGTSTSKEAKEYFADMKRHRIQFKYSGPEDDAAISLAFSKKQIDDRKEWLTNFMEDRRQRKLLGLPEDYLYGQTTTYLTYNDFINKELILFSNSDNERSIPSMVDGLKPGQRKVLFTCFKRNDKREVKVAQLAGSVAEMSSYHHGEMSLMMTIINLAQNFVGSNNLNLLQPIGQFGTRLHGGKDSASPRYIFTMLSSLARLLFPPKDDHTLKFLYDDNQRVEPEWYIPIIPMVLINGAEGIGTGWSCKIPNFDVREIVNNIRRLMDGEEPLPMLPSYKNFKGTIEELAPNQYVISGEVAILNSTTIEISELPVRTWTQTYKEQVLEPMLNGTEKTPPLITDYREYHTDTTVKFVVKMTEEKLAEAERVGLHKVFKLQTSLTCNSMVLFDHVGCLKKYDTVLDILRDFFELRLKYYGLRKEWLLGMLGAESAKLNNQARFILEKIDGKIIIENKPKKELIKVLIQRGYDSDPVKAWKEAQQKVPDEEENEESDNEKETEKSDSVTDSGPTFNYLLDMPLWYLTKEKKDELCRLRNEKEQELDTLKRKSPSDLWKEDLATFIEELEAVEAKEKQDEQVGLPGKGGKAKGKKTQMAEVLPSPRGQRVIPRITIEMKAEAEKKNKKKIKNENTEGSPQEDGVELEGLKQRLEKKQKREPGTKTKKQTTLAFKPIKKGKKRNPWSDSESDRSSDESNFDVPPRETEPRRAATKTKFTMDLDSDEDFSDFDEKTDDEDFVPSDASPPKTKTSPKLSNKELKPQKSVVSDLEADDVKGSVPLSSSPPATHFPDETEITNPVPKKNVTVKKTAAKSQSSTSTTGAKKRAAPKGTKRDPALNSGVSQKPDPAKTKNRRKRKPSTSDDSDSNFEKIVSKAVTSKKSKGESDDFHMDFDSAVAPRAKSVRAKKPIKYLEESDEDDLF

Compound	pIC50 (KB)	Activity [1] [%]	ID50 [2] [µM]
COc1cc([C@@H]2c3cc4c(cc3[C@@H](Nc3ccc(Cl)cc3)[C@H]3COC(=O)[C@H]23)OCO4)cc(O)c1O	5.70	77	> 50
COC1=CC([C@@H]2c3cc4c(cc3[C@@H](Nc3cccc([N+](=O)[O-])c3)[C@H]3COC(=O)[C@@H]32)OCO4)=CC(=O)C1=O	< 5.40	33	50
COC1=CC([C@@H]2c3cc4c(cc3[C@@H](Nc3cc([N+](=O)[O-])cc([N+](=O)[O-])c3)[C@H]3COC(=O)[C@@H]32)OCO4)=CC(=O)C1=O	5.74	32	50
COc1cc([C@@H]2c3cc4c(cc3[C@@H](Nc3ccc([N+](=O)[O-])cc3)[C@H]3COC(=O)[C@H]23)OCO4)cc(O)c1O	5.89	200	10
COc1cc([C@@H]2c3cc4c(cc3[C@@H](Nc3ccccc3)[C@H]3COC(=O)[C@H]23)OCO4)cc(O)c1O	5.74	128	25
COc1cc([C@@H]2c3cc4c(cc3[C@@H](Nc3ccc(CC#N)cc3)[C@H]3COC(=O)[C@H]23)OCO4)cc(O)c1O	5.92	109	25
CCOC(=O)c1ccc(N[C@@H]2c3cc4c(cc3[C@@H](C3=CC(=O)C(=O)C(OC)=C3)[C@H]3C(=O)OC[C@@H]32)OCO4)cc1	5.85	110	25
COC1=CC([C@@H]2c3cc4c(cc3[C@@H](Oc3ccc(F)cc3)[C@H]3COC(=O)[C@@H]32)OCO4)=CC(=O)C1=O	6.05	30	100
COc1cc([C@@H]2c3cc4c(cc3[C@H](O)[C@H]3COC(=O)[C@H]23)OCO4)cc(O)c1O	–	8	50
COC(=O)c1cccc(N[C@@H]2c3cc4c(cc3[C@@H](c3cc(O)c(O)c(OC)c3)[C@H]3C(=O)OC[C@@H]32)OCO4)c1	5.64	94	25
COC1=CC([C@@H]2c3cc4c(cc3[C@@H](Nc3cncc5ccccc35)[C@H]3COC(=O)[C@@H]32)OCO4)=CC(=O)C1=O	5.82	95	100
COC1=CC([C@@H]2c3cc4c(cc3[C@H](O)[C@H]3COC(=O)[C@@H]32)OCO4)=CC(=O)C1=O	5.72	4	10
COC1=CC([C@@H]2c3cc4c(cc3C(=O)[C@H]3COC(=O)[C@@H]32)OCO4)=CC(=O)C1=O	< 5.40	56	5
COC1=CC([C@@H]2c3cc4c(cc3[C@@H](Nc3cc(F)cc(F)c3)[C@H]3COC(=O)[C@@H]32)OCO4)=CC(=O)C1=O	5.70	57	50
COC1=CC([C@@H]2c3cc4c(cc3[C@@H](Nc3cccc(Br)c3)[C@H]3COC(=O)[C@@H]32)OCO4)=CC(=O)C1=O	5.21	15	50
COc1cc([C@@H]2c3cc4c(cc3[C@@H](Nc3ccc(C(C)=O)cc3)[C@H]3COC(=O)[C@H]23)OCO4)cc(O)c1O	6.00	147	25
COC1=CC([C@@H]2c3cc4c(cc3[C@@H](O)[C@H]3COC(=O)[C@@H]32)OCO4)=CC(=O)C1=O	5.55	41	< 5
COC(=O)c1ccc(N[C@@H]2c3cc4c(cc3[C@@H](C3=CC(=O)C(=O)C(OC)=C3)[C@H]3C(=O)OC[C@@H]32)OCO4)cc1O	5.72	47	100
COC1=CC([C@@H]2c3cc4c(cc3[C@@H](Nc3ccc(Cl)cc3)[C@H]3COC(=O)[C@@H]32)OCO4)=CC(=O)C1=O	< 5.40	27	25
COc1cc([C@@H]2c3cc4c(cc3[C@@H](O)[C@H]3COC(=O)[C@H]23)OCO4)cc(O)c1O	–	50	100
